Drawing on the OligoGym collection, this text covers target mRNA inhibition for 63 sequences.

For the data set, the target named is APOL1. To be noted: ASO.

“And” between values parts separate entries of the source, which are not always exact repeats. Equal values may be shown once. After the bases stand the sugars from the 5' end (letter, count) and the backbone: PS all phosphorothioate, else s phosphorothioate and o phosphodiester by linkage. Methylation of C is not given here. e = 2'-O-(2-methoxyethyl) (MOE); k = constrained ethyl (cEt); d = 2'-deoxy (DNA)

In turn, “GCTAATTTTCTGACTG (sugars kkkddddkdkdkdddd, PS)” returned a target mRNA inhibition (A431, 0.0156 µM) of 40%; a target mRNA inhibition (A431, 0.04 µM) of 34%; a target mRNA inhibition (A431, 0.0625 µM) of 66%; a target mRNA inhibition (A431, 0.25 µM) of 85%; a target mRNA inhibition (A431, 1 µM) of 93%; a target mRNA inhibition (A431, 2 µM) of 93%.

In the case of “GCTTTAAACTCAGGTG (sugars k2 d4 e4 k2 d4, PS)”, the target mRNA inhibition (A431, 2 µM) was determined as 95%.

On to GCTTTAAACTCAGGTG (sugars k4 d9 k3, PS), for which the target mRNA inhibition was 11% (A431, 0.04 µM); 76% and 79% (A431, 0.25 µM); 91% and 89% and 82% (A431, 1 µM).

In the case of “GCTTTAAACTCAGGTG (sugars kdddddkekekddddd, PS)”, the target mRNA inhibition (A431, 2 µM) stood at 92%.

In the case of “GCTTTAAACTCAGGTG (sugars kkddddkekekddddd, PS)”, the target mRNA inhibition (A431, 2 µM) came out at 86%.

The sequence “GCTTTAAACTCAGGTG (sugars kkddddkekekkdddd, PS)” had a target mRNA inhibition (A431, 2 µM) of 50%.

As for GGAATTATGGAATTGC (sugars k4 d9 k3, PS), the target mRNA inhibition is 55% (A431, 0.04 µM); 74% (A431, 0.0625 µM); 93% (A431, 0.25 µM); 98% (A431, 1 µM).

“GGAATTATGGAATTGC (sugars kekddddeekkddddd, PS)”: the target mRNA inhibition amounted to 23% (A431, 0.0156 µM); 63% (A431, 0.0625 µM); 90% (A431, 0.25 µM); 97% (A431, 1 µM); 98% (A431, 2 µM).

As for “GGAATTATGGAATTGC (sugars kkddddkekekddddd, PS)”, the target mRNA inhibition (A431, 2 µM) came out at 82%.

Sequence “GGAATTATGGAATTGC (sugars kkkddddkekeddddd, PS)” came in with a target mRNA inhibition (A431, 2 µM) of 55%.

“GGAATTATGGAATTGC (sugars kkkddddkekekdddd, PS)” gave a target mRNA inhibition (A431, 2 µM) of 66%.

As for GGCAAGGCTAAGTTCC (sugars k4 d9 k3, PS), the target mRNA inhibition is, setting by setting: (A431, 0.0625 µM) 41%; (A431, 0.25 µM) 75%; (A431, 1 µM) 84%.

Take “GGCAGTTTTGTAAGTG (sugars kkkddddkekekdddd, PS)”: under “A431, 2 µM”, the target mRNA inhibition is 32%.

With GGGAAATGAACGCAAT (sugars k4 d9 k3, PS), the target mRNA inhibition is, setting by setting: (A431, 0.0625 µM) 22%; (A431, 0.25 µM) 60%; (A431, 1 µM) 83%.

“GGGAATTATGGAATTG (sugars k3 d4 k3 e1 d5, PS)”: the target mRNA inhibition (A431, 2 µM) was determined as 77%.

“GGGTTATGAAATTATT (sugars k2 d4 e3 k2 d5, PS)” registered a target mRNA inhibition (A431, 2 µM) of 77%.

With “GGGTTATGAAATTATT (sugars kkkddddkekekdddd, PS)”, where the note is “A431, 2 µM”, the target mRNA inhibition turned out to be 73%.

Take “GTATTGCCAGCTAAGG (sugars kdddddkekekddddd, PS)”: the target mRNA inhibition turned out to be 29% (A431, 0.0156 µM); 50% (A431, 0.0625 µM); 70% (A431, 0.25 µM); 87% (A431, 1 µM); 93% (A431, 2 µM).

For the sequence “GTATTGCCAGCTAAGG (sugars kkddddkekekkdddd, PS)”, the target mRNA inhibition (A431, 2 µM) worked out at 74%.

In the case of “GTATTGTTTTTGTGGG (sugars kddddkekekeddddd, PS)”, the target mRNA inhibition (A431, 2 µM) came out at 70%.

In the case of “GTATTTCTTGATGTGG (sugars k2 d4 e3 k2 d5, PS)”, the target mRNA inhibition (A431, 2 µM) worked out at 97%.

For “GTATTTCTTGATGTGG (sugars kkddddkdkdkddddd, PS)”, where the note is “A431, 2 µM”, the target mRNA inhibition amounted to 87%.

As to “GTATTTCTTGATGTGG (sugars kkddddkekekddddd, PS)”, under “A431, 2 µM”, the target mRNA inhibition was 75%.

“GTATTTCTTGATGTGG (sugars kkddddkekekkdddd, PS)” returned a target mRNA inhibition (A431, 2 µM) of 52%.

Regarding “GTATTTCTTGATGTGG (sugars kkkddddkdkdkdddd, PS)”, the target mRNA inhibition runs as follows: (A431, 0.0156 µM) 24%; (A431, 0.0625 µM) 59%; (A431, 0.25 µM) 82%; (A431, 1 µM) 86%; (A431, 2 µM) 92%.

“GTATTTCTTGATGTGG (sugars kkkddddkekeddddd, PS)” had a target mRNA inhibition (A431, 0.0156 µM) of 50%; a target mRNA inhibition (A431, 0.0625 µM) of 80%; a target mRNA inhibition (A431, 0.25 µM) of 96%; a target mRNA inhibition (A431, 1 µM) of 97%; a target mRNA inhibition (A431, 2 µM) of 98%.

Take GTCATATCAGATGGGT (sugars k4 d9 k3, PS): the target mRNA inhibition reads like this: (A431, 0.0625 µM) 52%; (A431, 0.25 µM) 77%; (A431, 1 µM) 91%.

In the case of GTCATTAGTGCTATAG (sugars k4 d9 k3, PS), the target mRNA inhibition stood at 68% (A431, 0.0625 µM); 87% (A431, 0.25 µM); 93% (A431, 1 µM).

In the case of “GTGTATTTCTTGATGT (sugars kkddddekekeddddd, PS)”, the target mRNA inhibition is, setting by setting: (A431, 0.0156 µM) 36%; (A431, 0.0625 µM) 65%; (A431, 0.25 µM) 83%; (A431, 1 µM) 92%; (A431, 2 µM) 94%.

As for GTGTGATAACTAGCTG (sugars k4 d9 k3, PS), the target mRNA inhibition by setting is: (A431, 0.0625 µM) 78%; (A431, 0.25 µM) 88%; (A431, 1 µM) 93%.

For “GTGTTATATTTGATCC (sugars k2 d4 e3 k2 d5, PS)”, the target mRNA inhibition (A431, 0.04 µM) was 52% and 50%; the target mRNA inhibition (A431, 1 µM) worked out at 98%; the target mRNA inhibition (A431, 2 µM) was 98%.

In the case of “GTGTTATATTTGATCC (sugars k3 d4 k3 e1 d5, PS)”, the target mRNA inhibition (A431, 0.0156 µM) was found to be 32%; the target mRNA inhibition (A431, 0.04 µM) stood at 50%; the target mRNA inhibition (A431, 0.0625 µM) stood at 63%; the target mRNA inhibition (A431, 0.25 µM) turned out to be 84%; the target mRNA inhibition (A431, 1 µM) came to 91%; the target mRNA inhibition (A431, 2 µM) turned out to be 94%.

“GTGTTATATTTGATCC (sugars kkddddekekeddddd, PS)”: the target mRNA inhibition (A431, 2 µM) was 96%.

“GTGTTATATTTGATCC (sugars kkddddkekekddddd, PS)” gave a target mRNA inhibition (A431, 2 µM) of 78%.

“GTGTTATATTTGATCC (sugars kkkddddkekekdddd, PS)” registered a target mRNA inhibition (A431, 2 µM) of 75%.

In turn, “GTTATATTTGATCCTC (sugars k2 d4 e4 k2 d4, PS)” returned a target mRNA inhibition (A431, 2 µM) of 69%.

In the case of “GTTATATTTGATCCTC (sugars k3 d5 k3 d5, PS)”, the target mRNA inhibition runs as follows: (A431, 0.0625 µM) 86%; (A431, 0.25 µM) 93%; (A431, 1 µM) 99%; (A431, 2 µM) 100%.

For “GTTATATTTGATCCTC (sugars kkkddddkdkdkdddd, PS)”, the target mRNA inhibition (A431, 2 µM) worked out at 92%.

Under “A431, 2 µM”, “GTTATGAAATTATTGG (sugars kkdddddkekeddddd, PS)” registered a target mRNA inhibition of 68%.

Consider “GTTATGAAATTATTGG (sugars kkddddkdkdkddddd, PS)”, for which, for the setting “A431, 2 µM”, the target mRNA inhibition was found to be 71%.

Turning to “GTTATGAAATTATTGG (sugars kkkddddkekeddddd, PS)”, the target mRNA inhibition stood at 9% (A431, 0.0156 µM); 42% (A431, 0.0625 µM); 75% (A431, 0.25 µM); 85% (A431, 1 µM); 93% (A431, 2 µM).

For “GTTCAAAAGCAGCATT (sugars k2 d4 e3 k2 d5, PS)”, the target mRNA inhibition (A431, 2 µM) is 86%.

Where the note is “A431, 2 µM”, “GTTCAAAAGCAGCATT (sugars kddddkekekeddddd, PS)” returned a target mRNA inhibition of 33%.

Take “GTTCAAAAGCAGCATT (sugars kkdddddkekeddddd, PS)”: the target mRNA inhibition (A431, 2 µM) turned out to be 89%.

“GTTCAAAAGCAGCATT (sugars kkddddkdkdkddddd, PS)”: for the setting “A431, 2 µM”, the target mRNA inhibition is 73%.

As for “GTTCTAACTCTTGGGC (sugars k3 d4 k3 e1 d5, PS)”, where the note is “A431, 2 µM”, the target mRNA inhibition is 58%.

For “GTTCTAACTCTTGGGC (sugars kekddddeekkddddd, PS)”, for the setting “A431, 2 µM”, the target mRNA inhibition was 86%.

Regarding “GTTCTAACTCTTGGGC (sugars kkdddddkekeddddd, PS)”, the target mRNA inhibition (A431, 2 µM) came to 84%.

“GTTCTAACTCTTGGGC (sugars kkkddddkdkdkdddd, PS)” yielded a target mRNA inhibition (A431, 2 µM) of 73%.

For the setting “A431, 2 µM”, “GTTCTAACTCTTGGGC (sugars kkkddddkekeddddd, PS)” registered a target mRNA inhibition of 66%.

In the case of GTTTCATATTCACCCG (sugars k4 d9 k3, PS), the target mRNA inhibition is, setting by setting: (A431, 0.0625 µM) 82%; (A431, 0.25 µM) 92%; (A431, 1 µM) 97%.

“GTTTTGTAAGTGCAAC (sugars kkddddkekekkdddd, PS)”: the target mRNA inhibition (A431, 2 µM) turned out to be 62%.

TAATGTCTCAAACTCC (sugars k4 d9 k3, PS): the target mRNA inhibition was 24% (A431, 0.0625 µM); 50% (A431, 0.25 µM); 80% (A431, 1 µM).

As for “TAATTCTATTAGAGGG (sugars k2 d4 e3 k2 d5, PS)”, the target mRNA inhibition (A431, 2 µM) stood at 59%.

Take “TAATTCTATTAGAGGG (sugars kkkddddkekekdddd, PS)”: for the setting “A431, 2 µM”, the target mRNA inhibition came out at 41%.

For the sequence TACATTTGGAGATCTG (sugars k4 d9 k3, PS), the target mRNA inhibition came to 61% (A431, 0.0625 µM); 80% (A431, 0.25 µM); 90% (A431, 1 µM).

Sequence TAGTGCTATAGAGGGA (sugars k3 d10 k3, PS) returned a target mRNA inhibition (A431, 0.0625 µM) of 57%; a target mRNA inhibition (A431, 0.25 µM) of 86%; a target mRNA inhibition (A431, 1 µM) of 95%.

As for “TATCAGATGGGTACTT (sugars kkkddddkekeddddd, PS)”, the target mRNA inhibition (A431, 2 µM) came out at 37%.

Under “A431, 2 µM”, “TATTCTCATGGTACAG (sugars k3 d4 k3 e1 d5, PS)” yielded a target mRNA inhibition of 79%.

The sequence “TATTTCTTGATGTGGT (sugars k2 d4 e4 k2 d4, PS)” displayed a target mRNA inhibition (A431, 2 µM) of 96%.

As for “TATTTCTTGATGTGGT (sugars kkkddddkekekdddd, PS)”, the target mRNA inhibition came to 17% (A431, 0.0156 µM); 61% (A431, 0.0625 µM); 80% (A431, 0.25 µM); 89% (A431, 1 µM); 95% (A431, 2 µM).

In the case of TCACATACTCTCTGGG (sugars k4 d9 k3, PS), the target mRNA inhibition is 24% (A431, 0.0625 µM); 62% (A431, 0.25 µM); 77% (A431, 1 µM).

The sequence “TCAGATGGGTACTTCT (sugars k2 d4 e3 k2 d5, PS)” had a target mRNA inhibition (A431, 2 µM) of 88%.
